Experimental data taken from patent US12391646B2, “Using adiponectin receptor agonists to treat inflammation and bone diseases in diabetes” (Trustees of Tufts College, priority 2020, dated 2025).

Assays:
Assay type in all cases: cell-based
[1] = system: RAW 264.7 cells in high glucose medium; assay: Osteoclastogenesis and autophagy of RANKL-treated RAW 264.7 cells in high glucose medium; settings: high glucose medium
Protocol: FIG. 20 RAW 264.7 cells were treated with RANKL (100 ng/ml) with or without AdipoRon ([…]) or AdipoAI (5 μM) in low (5 mmol/l) glucose, 20 mmol/l D-mannitol or high (25 mmol/l) glucose medium. qRT-PCR analysis of cathepsin K (A), TRAP (B) and microtubule associated protein 1 light chain 3 (LC3) (C), and mRNA expression were calculated (n≥3). (D) Western blot analysis of LC3A/B protein levels normalized to β-actin. (E) The mean of protein/β-actin ratios normalized to 1.0 (RANKL-AdipoRon-AdipoAI-H group) quantified by densitometry. (F) Autophagosome images obtained with laser confocal microscopy after the RAW 264.7 cells were transfected with a GFP-LC3 plasmid and treated with RANKL and AdipoRon or AdipoAI (scale bar=50 μm). Data are shown as mean±SD. *, P<0.05. **P<0.01. ***P<0.001.
FIG. 21 Autophagy inhibitor reverses AdipoAI-inhibited osteoclastogenesis in high glucose medium. RAW 264.7 cells were treated with RANKL (100 ng/ml) in 2 days and with or without AdipoAI (5 μM) for 24 hours followed by 3-methyladenine (3-MA, 2.5 mM) treatment for another 24 hours in high glucose medium. qRT-PCR analysis of cathepsin K (A), TRAP (B) and LC3 (C) mRNA expression were calculated (n≥3). (D) Western blot analysis of LC3A/B protein levels normalized to β-actin. (E) The mean of protein/β-actin ratios normalized to 1.0 (3-MA-, RANKL-, AdipoAI-group) quantified by densitometry. Data are shown as mean±SD. *, P<0.05. **P<0.01. ***P<0.001.
FIG. 22 AdipoAI-induced autophagy of osteoclasts in high glucose medium via AKT1/mTOR signaling pathway. RAW 264.7 cells were induced with RANKL for 2 days and then treated with or without (5 μM) additional 24 hours after serum starvation for 4 hours. Then, the cells were treated with RANKL, AdipoAI or SC79 (5 μM), an AKT activator, for another 24 hours in high glucose medium. qRT-PCR analysis of mRNA expression of cathepsin K (A), TRAP (B) and LC3 (C) were calculated (n≥3). (D) Representative images show the protein expression levels of AKT, p-AKT, AKT1, p-AKT1, mTOR, p-mTOR, and LC3A/B in osteoclasts. Quantitative analysis of bands is shown in (E-K) (n≥3). Data are shown as mean±SD. *, P<0.05. **P<0.01. ***P<0.001. R: RANKL. A, AI: AdipoAI. SC5: SC79 (5 μM).
RAW 264.7 cells (ATCC, Manassas, VA, USA) were cultured and passaged in DMEM supplemented with 10% (v/v) FBS (Invitrogen, Grand Island, NY, USA) and 1% Penicillin-Streptomycin (Gibco, Gaithersburg, MD, USA). For the induction of osteoclastogenesis, RAW 264.7 cells were cultured 24 in α-MEM supplemented with 10% FBS and 1% Penicillin-Streptomycin in the presence of 100 ng/ml RANKL (Peprotech, Rocky Hill, NJ, USA) for 2 days, and subsequently treated or not with AdipoRon or AdipoAI for another 2 days changing cell culture medium every 2 days. After a total of […] of culture, morphologic examination was performed, as was mRNA and protein expression. To simulate high glucose environment in vitro, α-MEM was supplemented with D-glucose to 25 mmol/l (high glucose) or 5 mmol/l (physiological glucose). 20 mmol/l D-mannitol served as an osmotic control.
Total RNA was isolated from cell cultures and gingival soft tissues using TriZol reagent (Life Technologies, Carlsbad, CA, USA) according to the manufacturer's instructions^24. Reverse transcription was performed using the PrimeScript RT Master Mix (Takara Bio, Otsu, Japan) and real-time-qPCR analyses were performed using SYBR-Green Real-Time PCR Master Mix (Takara Bio, Otsu, Japan) as described earlier^27.
Total cellular extracts were prepared using RIPA Lysis and Extraction Buffer containing three Protease Inhibitors (Santa Cruz, Dallas, TX, USA). Western blot analyses were performed as previously described 24. Antibodies for β-actin (1:2000) and GAPDH (1:5000), LC3A/B (1:1000), AKT1 (1:1000), p-AKT1 (1:1000), AKT (1:1000), p-AKT (1:1000), mTOR (1:1000), p-mTOR (1:1000) were purchased from Abcam and Cell Signaling Technology, respectively. SC79, an AKT activator was purchased from Sigma Aldrich. […]

[2] = system: Raw264.7 cells; assay: CCK-8 cytotoxicity assay, 24 hours; settings: at 40 μM or lower concentrations
Protocol: (§1) FIG. 1 Characterization of anti-inflammatory properties of APR-like compounds. (a) Raw264.7 cells were pretreated with APR (20 μM) or new compounds 1 to 10 (5 μM) for 24 h followed by incubation with LPS (100 ng/mL) for an additional 6 h. IL-6 and IL-1β mRNA expression levels were evaluated by qPCR and normalized with GAPDH mRNA level. (b) Raw264.7 cells were pretreated with different doses of AdipoAI for 24 h followed by incubation with LPS (100 ng/mL) for additional 6 h to evaluate dose-dependency of AdipoAI in inhibiting IL-6 and IL-1β mRNA expression levels by qRT-PCR and normalized with GAPDH mRNA level. (c) Evaluation of cytotoxicity of APR, AdipoAI and compound 5 by CCK8 assay in Raw264.7 cells treated for 24 hours. (d) BMMs were pretreated with APR (20 μM), AdipoAI (5 μM) or compound 5 (5 μM) for 24 h followed by incubation with LPS (100 ng/ml) for additional 6 h for the measurement of IL-6 and IL-1β mRNA expression levels by qRT-PCR and normalized with GAPDH mRNA level. Data were expressed as the mean±SEM at five biological independent experiments. One-way ANOVA test for multiple-group comparisons, *P<0.05, significant differences between each indicated group.
Raw264.7 cells were seeded at 2×10^3 cells/well in 96-well plates for 16 hours and then serum-starved for 6 hours. Cells were maintained in DMEM in the presence of different concentrations of APR (AdipoGen Life Sciences, San Diego, CA, USA) and compounds for 24 hours. […] The detailed group assignment is shown in the individual figure legends.

[3] = system: LPS-stimulated RAW 264.7 macrophages; assay: qPCR of cytokine mRNA in LPS-stimulated RAW 264.7 macrophages; settings: compounds at 5 μM vs APR at 20 μM, 24 h pretreatment, then LPS 100 ng/mL 6 h
Protocol: as §1
RAW 264.7 macrophage cell line was purchased from ATCC (Manassas, VA, USA) and maintained in DMEM (Gibco, Life Technologies, Carlsbad, CA, USA) supplemented with 10% (v.v-1) FBS (Gibco, Life Technologies) and 1% (v.v-1) penicillin/streptomycin (Gibco, Life Technologies). The cells were routinely cultured in an incubator at 37° C. in a humidified atmosphere of 5% CO2.
Total RNA of cells was extracted using Quick-RNA Miniprep Kit (ZYMO Research, Irvine, CA, USA) and total RNA from mouse tissues was prepared with TriZol reagent (Life Technologies) according to the manufacturer's instructions followed by qRT-PCR assays as described previously (L. Zhang et al., 2014). 1 μg of total RNA was used for reverse transcription using the M-MLV Reverse Transcriptase (Thermo Scientific, Waltham, MA, USA) according to the manufacturer's protocol using PowerUp SYBR Green Master Mix (Thermo Scientific) on a Bio-Rad iQ5 thermal cycler (Bio-Rad Laboratories, Hercules, CA, USA). Differences in expression were evaluated by the comparative cycle threshold method using GAPDH or β-actin as a control. The primer sequences used for the qRT-PCR experiments are listed in supplemental Table 1.
Macrophages were seeded at a density of 5×10^5 cells/well in 12-well plates. After overnight incubation, the cells were transfected for 24 h with siRNAs targeting specific genes or scrambled control siRNAs using HiPerFect Transfection Reagent (Qiagen, Hilden, Germany) according to the manufacturer's guidelines. Gene silencing efficiency was monitored by qPCR or Western blot analysis. The siRNA duplexes used in this study were chemically synthesized by Thermo Scientific.

With `Cn1cnc(N)c2ncnc1-2` [3-methyladenine, reference compound] as the molecule, how does the “LC3 mRNA and LC3II protein induced by AdipoAI” value ([1]; 3-MA 2.5 mM 24 hours) read?
Its value is “decreased the mRNA expression of LC3 and protein expression of LC3II induced by AdipoAI”.

What about the “AdipoAI-inhibited mRNA expression of Cathepsin K and TRAP” value ([1]; 3-MA 2.5 mM) of the same molecule?
The value was “reversed the AdipoAI-inhibited mRNA expression of osteoclastogenesis markers Cathepsin K and TRAP”.

How did the “cytotoxic effects (CCK-8)” value [2] turn out when `CC(c1ccccc1)N1CCC(NC(=O)COc2ccc(C(=O)c3ccc(Cl)cc3)cc2)CC1` (stereo not drawn) [Compound 5] was run?
Its value is “neither of the 3 small molecules mediated significant cytotoxic effects”.

And the “inhibition of IL-6 and IL1-β mRNA expression” value [3]?
Its value is “stronger inhibitory effects than APR”.

Which “LC3II, AKT expression and AKT, AKT1, mTOR phosphorylation changes induced by AdipoAI” value ([1]; SC79 5 μM) does the source give for `CCOC(=O)C1=C(N)Oc2ccc(Cl)cc2C1C(C#N)C(=O)OCC` (stereo not drawn) [SC79, reference compound] here?
The value was “reverses the promoted expression of LC3II”.

What about the “LC3 mRNA and osteoclastogenic marker mRNA under AdipoAI” value ([1]; SC79 5 μM) of the same molecule?
The value was “reverses the upregulated expression of LC3 mRNA and downregulated expression of osteoclastogenic markers”.
